Earlier results, collected in patent US20040076968A1, “Method for detecting pre-disposition to hepatotoxicity” (priority 2000, published 2004).

Details: human subjects; cited from earlier work

SMILES: Cc1ccc(C(=O)c2cc(O)c(O)c([N+](=O)[O-])c2)cc1 [tolcapone]
- main pathway of elimination from the body: glucuronidation
